As usually defined, the EC50 is the concentration needed to bring the measured effect to its halfway point.

The target in assay [1] is DYRK1A kinase (Homo sapiens, UniProt Q13627). Nature of the assay: DYRK1A kinase activity (Ser/Thr 18 peptide Z-lyte FRET assay).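 Note: kinase activity read as coumarin/fluorescein emission ratio after development step, with unphosphorylated and phosphorylated peptide forms setting 0% and 100% controls, values from dose-response curves.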 It is filed as biochemical. The following applies: recombinant DYRK1A, 30 μM ATP, one hour at room temperature.
In assay [2] the target is GSK3β kinase (Homo sapiens, UniProt P49841). Briefly: GSK3β kinase activity (Ser/Thr 09 peptide Z-lyte FRET assay). It is filed as biochemical. The following applies: recombinant kinase, 46 μM ATP, one hour at room temperature; read-out: EC50.
Sequence of GSK3β kinase (P49841 whole entry): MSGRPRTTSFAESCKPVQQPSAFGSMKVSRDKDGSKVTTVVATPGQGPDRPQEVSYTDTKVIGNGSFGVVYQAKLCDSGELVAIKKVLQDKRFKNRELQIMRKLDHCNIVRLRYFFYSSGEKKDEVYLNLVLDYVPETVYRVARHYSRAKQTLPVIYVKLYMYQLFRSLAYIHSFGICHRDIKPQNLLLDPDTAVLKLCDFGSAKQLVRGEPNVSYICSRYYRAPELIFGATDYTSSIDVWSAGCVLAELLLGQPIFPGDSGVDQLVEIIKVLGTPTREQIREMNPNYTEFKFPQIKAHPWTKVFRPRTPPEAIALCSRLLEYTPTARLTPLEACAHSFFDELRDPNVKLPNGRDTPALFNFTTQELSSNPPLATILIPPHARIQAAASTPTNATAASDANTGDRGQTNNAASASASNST
Protocol: Each compound is dissolved in DMSO as a 10 mM stock and used to prepare compound source plates. Serial dilution (1:3, 11-point dose-response curves from 10 μM to 0.0003 μM) and compound transfer was performed using the ECHO 550 (Labcyte, Sunnyvale, Calif.) into 1536-well black-walled round bottom plates (Corning).
This is a non-radioactive assay using fluorescence resonance energy transfer (FRET) between coumarin and fluorescein to detect kinase activity which is represented as ratio of coumarin emission/fluorescein emission.
The mixture is allowed to incubate with the representative compounds for one hour at room temperature. All reactions were performed in duplicate. Unphosphorylated (“0% Control”) and phosphorylated (“100% control”) forms of Ser/Thr 18 serve as control reactions.
After incubation, diluted Development Buffer is added to the reaction and allowed to further incubate for one hour at room temperature.
Dose-response curves are generated and inhibitory concentration (IC50) values are calculated using non-linear regression curve fit in the Dotmatics' Studies Software (Bishops Stortford, UK).
Assay [3] has as its system Tau phosphorylation at Threonine 212 (pT212Tau). Briefly: Tau phosphorylation at Threonine 212 (pT212Tau) in Dyrk1a- and MAPT-overexpressing HEK293T cells, sandwich ELISA. It is filed as cell-based. As to conditions: Homo sapiens, HEK-293T, overnight (16-18 hours), read-out: Thr212 EC50. The method, then: HEK293T cells (transfectable human embryonic kidney cells) were cultured in DMEM medium supplemented with 10% FBS and 1% penicillin/streptomycin.
HEK293T cells were transiently transfected to overexpress Dyrk1a and microtubule-associated protein Tau (MAPT) genes. Specifically, Dyrk1a and MAPT expression vectors were obtained from OriGene (10 μg of each, catalog numbers SC314641 and RC216166, respectively). A MaxiPrep for each vector was ordered and received from GeneWiz, yielding 874.5 μg (resuspended at […]) of the Dyrk1a expression vector, and 898 μg (resuspended at […]) of MAPT.
HEK293T cells were seeded at 1.0×10^7 cells in 10 mL per T-75 flask. […] One T-75 flask was designated as a no-vector negative control for pT212Tau signal.
After 4-6 hours of incubation in transfection reagents, transiently double transfected HEK293T cells were dissociated by treatment with trypsin EDTA and seeded at 1.0×10^5 cells in 100 μL per well in 96-well plates. No-vector negative controls were seeded in separate 96-well plates to avoid the risk of the negative control cells picking up the overexpression during incubation. At the time of seeding, DMSO-resuspended Samumed compounds were dispensed to eight wells as a serial dilution from 10 μM to 4.6 nM final concentration in medium, or at 0.12 μM to 0.05 nM with particularly potent compounds. Cells were exposed to the representative compounds overnight (16-18 hours) in a 37° C. incubator.
96-Well flat-bottom plates were coated with 100 μL per well anti-HT7 capture antibody (ThermoFisher, MN1000) diluted 1:300 in 1×PBS at 4° C. overnight, with shaking at 500 rpm. After overnight capture antibody incubation, coated plates were washed four times with 200 μL per well of 1×PBS-0.05% Tween-20, and blocked for 1 hour with 200 μL per well of 1×PBS with 2% BSA. After 1 hour of blocking, plates were washed four times with 200 μL per well of 1×PBS-0.05% Tween-20, prior to sample loading.
Wells of compound-treated cells were visually checked for cell death before being washed with 200 μL per well of 1×DPBS supplemented with phosphatase inhibitor diluted to 1×. Cells were then lysed with 100 μL 1×RIPA buffer supplemented with phosphatase and protease inhibitors (each diluted to a final 1×). Cells were shaken at 500 rpm, 4° C. for 20 minutes prior to further lysis (via manual scraping) and transfer to 96-well V-bottom collection plates (Corning, 3894). V-bottom plates were centrifuged at 4000 rpm, 4° C., for 15 minutes, and 100 μL of lysate supernatant from each well was directly tested for pT212Tau signal by sandwich ELISA.
Specifically, lysates were directly transferred to the coated and blocked ELISA plates for 2 hours before plates were washed four times with 200 μL per well of 1×PBS-0.05% Tween-20 and probed with 100 μL per well of anti-pT212Tau antibody (ThermoFisher, 44-740G) diluted 1:200 in 1×PBS for 2 hours. Plates were washed four times with 200 μL per well of 1×PBS-0.05% Tween-20 and probed with 100 μL per well of anti-rabbit/HRP conjugate (Cell Signaling Technology, 7074S) diluted 1:600 in 1×PBS for 1 hour. Plates were washed four times with 200 μL per well of 1×PBS-0.05% Tween-20 before 100 μL per well of TMB substrate solution (ThermoFisher, N301) was added. When colour development was observed, 100 μL per well of stop solution (ThermoFisher, N600) was added, and colorimetric detection of pT212Tau signal was read at 450 nm with the Cytation 3 Cell Imaging Multi-Mode Reader (BioTek). The signal was used to plot, draw the curves fitting, and determine the EC50 values in GraphPad Prism for tested representative compounds.
A general note: An ELISA detects its analyte on a solid surface through an enzyme-linked reagent.

Assay [4] concerns secreted cytokines TNFα, IL-6 and KC-GRO. Briefly: Secreted cytokines in Lipopolysaccharide-stimulated BV-2 cells (Table 9 does not say which cytokine). It is filed as cell-based, mouse. As to conditions: Mus musculus, BV-2, 5 h; read-out: EC50.
Protocol: BV-2 cells (mouse microglial cells) were cultured in 1:1 DMEM medium supplemented with 10% FBS, and 1% penicillin/streptomycin.
BV-2 cells are plated at 35,000 cells/well in a volume of 100 μl for at least 4 hours before compounds are added. […] Compounds were added to cells overnight. […] Supernatant is removed and saved for further cytokine detection. The original plates with seeded cells were tested for cytotoxicity by measure of adenosine triphosphate (ATP) release by adding CellTiter-Glo® diluted 1:4 in distilled water (G7573, Promega) and transferring lysed cells to a completely black 96-well plate to be read with the Cytation3. Supernatant was then diluted 1:2 with a diluent from V-PLEX cytokine Kit and directly tested for the secreted cytokines TNFα, IL-6 and KC-GRO using electrochemiluminescence (Meso Scale Discovery). The standard curve for each cytokine was used to convert the electrochemiluminescent signal into pg of protein per mL.
Assay [5] deals with SW480 colon carcinoma cells. Briefly: Cell viability assay (CellTiter-Glo). The following applies: Homo sapiens; for EC50: SW480, 96 h; for inhibition at 10 µM: SW480, read-out: percent inhibition at 10 μM. On the technique in general: ATP-based viability assays read luminescence as a measure of living cells.
Assay [6] has as its system Wnt-responsive Sp5-Luc reporter in SW480 colon carcinoma cells. Nature of the assay: Screening assay for Wnt activity (Sp5-Luc reporter gene assay). As to conditions: Homo sapiens; for EC50: SW480; for inhibition at 10 µM: SW480, read-out: percent inhibition at 10 μM. A general note: In a reporter assay the amount or activity of a reporter protein is the signal.
Protocol: The screening assay for Wnt activity is described as follows.
SW480 colon carcinoma cells were transduced with a lentiviral vector expressing luciferase with a human Sp5 promoter consisting of a sequence of eight TCF/LEF binding sites. […] These stably transduced SW480 cells were expanded in cell culture and used for all further screening activities. Each compound was dissolved in DMSO as a 10 mM stock and used to prepare compound source plates. Serial dilution (1:3, 10-point dose-response curves starting from 10 μM) and compound transfer was performed using the ECHO 550 (Labcyte, Sunnyvale, Calif.) into 384-well white solid bottom assay plates (Greiner Bio-One) with appropriate DMSO backfill for a final DMSO concentration of 0.1%. […] Following incubation, 15 μl of BriteLite Plus luminescence reagent (Perkin Elmer) was added to each well of the 384-well assay plates. The plates were placed on an orbital shaker for 2 min and then luminescence was quantified using the Envision (Perkin Elmer) plate reader.
Assay [7] has as its system IL-6. Nature of the assay: IL-6 inhibition in LPS-stimulated human peripheral blood mononuclear cells (HTRF). As to conditions: Homo sapiens, PBMC; for EC50: 22 h; for inhibition at 10 µM: read-out: percentage in parentheses after EC50 >10.
For assay [8], the system named is α-smooth muscle actin (aSMA) positive LL29 cells. Briefly: Inhibition of the fibrotic process: αSMA staining in TGF-β1 treated LL29 fibroblasts from IPF patients. The following applies: Homo sapiens, Fibroblast; for EC50: 96 h; for inhibition at 10 µM: read-out: percentage in parentheses after EC50 >10.
Assay [9] deals with Tau phosphorylation at Ser396 (pSer396). Nature of the assay: Tau phosphorylation at Ser396 (pSer396) in SH-SY5Y cells, ELISA / western blot.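 Note: decrease in pSer396 Tau measured in lysates of treated cells by colorimetric ELISA or chemiluminescent western blot, same pSer396 antibody for both.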 It is filed as cell-based, human. As to conditions: Homo sapiens; SH-SY5Y cells, overnight (16-18 h); read-out: pSer396 Tau EC50.
Protocol: Two days before treatment, cells were seeded onto 96 well plates at 5×10^4 cells/well.
The above synthesized compounds were screened using the cell assay procedure to assess decrease Tau phosphorylation at Ser396 (pSer396) described below.
Cells were lysed with RIPA buffer complemented with phosphatase and protease inhibitors then lysates were spun down at 12,000 g for 10 min to remove any cellular debris.

For `CN1CCCN(CC(=O)Nc2cc3nc(-c4cnn(C)c4)ccc3cn2)CC1` [Compound 105, 2-(4-Methyl-1,4-diazepan-1-yl)-N-(2-(1-methyl-1H-pyrazol-4-yl)-1,6-naphthyridin-7-yl)acetamide], the EC50 in assay [1] is 0.071 µM; in assay [2], 0.541 µM; in assay [3], 0.263 µM; in assay [4], 1.13 µM; in assay [5] it was greater than 10 µM; in assay [6] it was greater than 10 µM. For the same molecule, the EC50 in assay [7] and in assay [8] was greater than 10 µM each time. Moreover, the inhibition at 10 µM is 38.9% in assay [5], 45.4% in [6], 2.6% in assay [7] and 16.9% in assay [8].

Regarding `Cn1ncc(-c2ccc3cnc(NC(=O)C4CC5(C4)CN(CCF)C5)cc3n2)c1CN1CCCCC1` [Compound 280, 2-(2-Fluoroethyl)-N-(2-(1-methyl-5-(piperidin-1-ylmethyl)-1H-pyrazol-4-yl)-1,6-naphthyridin-7-yl)-2-azaspiro[3.3]heptane-6-carboxamide], the EC50 was 0.15 µM in [1]; 0.335 µM in assay [2]; 0.032 µM in assay [3]; 2.41 µM in [5]; greater than 10 µM in assay [6]; 5.71 µM in assay [7]. For the same molecule, in assay [8], it took 2.52 µM to reach a half-maximal effect (EC50). The inhibition at 10 µM in [6] worked out at 33.7%.

On to `Cc1ncc(-c2ccc3cnc(NC(=O)N4CCC(N5CCOCC5)CC4)cc3n2)o1` [Compound 566, N-(2-(2-Methyloxazol-5-yl)-1,6-naphthyridin-7-yl)-4-morpholinopiperidine-1-carboxamide], for which the 50% effective concentration (EC50) is 0.077 µM in assay [1]; 0.621 µM in [2]; 6.6 µM in assay [3]; greater than 10 µM in assay [5]; greater than 10 µM in assay [6]; greater than 10 µM in [7]. The molecule also gave an EC50 in assay [8] greater than 10 µM. The inhibition at 10 µM in assay [5] came out at 19.7%; in assay [6] it was 33.2%; in assay [7], 3.6%; in assay [8], 35.2%.

As to `Cn1cncc1-c1ccc2cnc(NC(=O)c3ccc(F)cc3)nc2c1` [Compound 1354, 4-Fluoro-N-(7-(1-methyl-1H-imidazol-5-yl)quinazolin-2-yl)benzamide], the EC50 in assay [1] is 0.002 µM; in [2], 1.17 µM; in assay [3], 0.006 µM; in assay [5], 5.34 µM; in assay [6] it was 2.38 µM; in assay [7] it was greater than 10 µM. Also, a half-maximal effect in assay [8] (EC50) was put at 5.09 µM. The inhibition at 10 µM in assay [7] is 39.9%.

Regarding `Cc1nnc(-c2ccc3cnc(NC(=O)CN4C5CCC4CC5)nc3c2)s1` [Compound 1632, 2-(7-Azabicyclo[2.2.1]heptan-7-yl)-N-(7-(5-methyl-1,3,4-thiadiazol-2-yl)quinazolin-2-yl)acetamide], the half-maximal effective concentration (EC50) in [1] was 0.5 µM; in [2] it was 0.943 µM; in assay [3], 0.402 µM; in [5], greater than 10 µM; in assay [6] it was greater than 10 µM; in assay [7], greater than 10 µM. Also, the EC50 in [8] is greater than 10 µM. Further, the inhibition at 10 µM in assay [5] is 21.3%; in assay [6], 19.2%; in assay [7], 4.2%; in assay [8], 28.8%.

In the case of `CC(C)n1cc(C(=O)Nc2cc3nc(-c4cncc(NC5CCN(C)CC5)n4)ccc3cn2)cn1` [Compound 4565, 1-Isopropyl-N-(2-(6-((1-methylpiperidin-4-yl)amino)pyrazin-2-yl)-1,6-naphthyridin-7-yl)-1H-pyrazole-4-carboxamide], the EC50 in assay [1] was 0.012 µM; in assay [2] it was greater than 10 µM; in assay [3] it was 0.042 µM; in assay [4] it was 1 µM; in assay [5] it was 1.55 µM; in assay [6] it was 1.95 µM. For the same molecule, the EC50 in [7] and in assay [8] was greater than 10 µM throughout. Further, the inhibition at 10 µM stood at 10.2% in [7] and 31% in assay [8].

For the molecule `CN1CCC(Nc2cc(C(=O)Nc3ncc4ccc(-c5cnn(C)c5)cc4n3)ccn2)CC1` [Compound 4569, N-(7-(1-Methyl-1H-pyrazol-4-yl)quinazolin-2-yl)-2-((1-methylpiperidin-4-yl)amino)isonicotinamide], the EC50 is 0.008 µM in assay [1]; greater than 10 µM in assay [2]; 0.238 µM in [3]; 2.22 µM in assay [5]; 0.57 µM in assay [6]; greater than 10 µM in [7]. It took 4.09 µM to reach a half-maximal effect in assay [8] (EC50). In addition, in [7], the inhibition at 10 µM was found to be 42.3%.

For `O=C(Nc1cc2cc(-c3cnco3)cnc2cn1)[C@H]1CC[C@H](CO)CC1` [Compound 4610], the EC50 in assay [1] was 0.029 µM; in assay [2], greater than 10 µM; in [9], greater than 10 µM; in assay [4], 0.261 µM; in [5] it was greater than 10 µM; in assay [6] it was greater than 10 µM. In addition, the EC50 in assay [7] was greater than 10 µM; in [8] it was 4.19 µM. For the same molecule, the figures for the inhibition at 10 µM in assay [5], in assay [6] and in assay [7] were 24.6%, 9.1% and 10.3%, respectively.

On to `CN(C)[C@H]1CC[C@H](C(=O)Nc2cc3cc(-c4cncs4)cnc3cn2)CC1` [Compound 4618], for which the EC50 in [1] is 0.018 µM; in [2] it was 3.82 µM; in assay [9] it was 1.05 µM; in assay [4], 0.108 µM; in assay [5] it was greater than 10 µM; in [6], greater than 10 µM. Further, the figures for the half-maximal effective concentration (EC50) in assay [7] and in [8] were greater than 10 µM and 4.81 µM, respectively. Further, the inhibition at 10 µM in assay [5] was determined as 36.1%; in [6], 14.6%; in [7] it was 6.3%.

For the molecule `CN1CCN(c2ncc(C(=O)Nc3cc4cc(-c5cnn(C)c5)ncc4cn3)s2)CC1` [Compound 4632, N-(6-(1-methyl-1H-pyrazol-4-yl)-2,7-naphthyridin-3-yl)-2-(4-methylpiperazin-1-yl)thiazole-5-carboxamide], the EC50 in assay [1] was 0.005 µM; in assay [2], 0.321 µM; in assay [9] it was 7.93 µM; in assay [4], 0.7 µM; in assay [5], greater than 10 µM; in assay [6] it was 0.922 µM. Further, the EC50 in assay [7] and in assay [8] was greater than 10 µM in each case. Besides, the inhibition at 10 µM in [5] was found to be 40.9%; in [7] it was 6.8%; in assay [8], 35.5%.

For the origin of these results see US10703748B2, “Diazanaphthalen-3-yl carboxamides and preparation and use thereof” (Samumed, LLC, priority 2017, dated 2020).
